{"source": "patent US11278522B2", "about": "“Use of methadone metabolites for treatment of anxiety and depression” (Georgetown University, priority 2015, dated 2022)", "key": {"Forced swim test (rats)": {"assay": "Forced swim test (rats)", "format": "in vivo, rat", "settings": "three doses, 5 min test, vehicle 81 s", "description": "Forced Swim Test (FST; Rats) The FST in rats was conducted as previously described (Porsolt et al., 2001). On day 1, rats were placed in a cylindrical chamber (20 cm in diameter, 46 cm deep) filled to a height of 38 cm with room temperature water for 15 min. After the completion of this pre-exposure test, animals were removed from the apparatus, dried with towels and placed under a heat lamp for ˜30 min. […] Animals were treated with these same doses again 20 h and 23 h after the initial dose. Twenty-four h after the pre-exposure, animals were re-introduced to the apparatus and video-recorded for 5 min. Immobility was hand-scored for each video record by a treatment blind observer (P.A.F.) using ANYmaze (Stoelting) to record the data."}, "rat α3β4 nAChR channels": {"molecular_target": "rat α3β4 nAChR channels (Rattus norvegicus, UniProt P04757+P12392)", "sequence (P04757 26-499)": "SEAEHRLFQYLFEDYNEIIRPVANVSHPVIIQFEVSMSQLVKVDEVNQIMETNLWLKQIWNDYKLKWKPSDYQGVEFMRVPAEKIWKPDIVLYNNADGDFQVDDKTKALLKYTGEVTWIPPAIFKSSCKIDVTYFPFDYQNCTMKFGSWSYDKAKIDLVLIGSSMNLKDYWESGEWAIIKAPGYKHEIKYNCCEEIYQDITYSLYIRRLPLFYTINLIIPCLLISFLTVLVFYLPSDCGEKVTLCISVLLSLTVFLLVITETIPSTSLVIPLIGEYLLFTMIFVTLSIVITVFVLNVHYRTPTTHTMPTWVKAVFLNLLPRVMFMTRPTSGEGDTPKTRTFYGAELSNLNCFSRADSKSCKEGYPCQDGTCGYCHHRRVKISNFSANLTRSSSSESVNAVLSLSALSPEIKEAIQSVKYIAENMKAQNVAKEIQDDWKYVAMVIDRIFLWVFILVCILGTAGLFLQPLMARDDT", "sequence (P12392 21-495)": "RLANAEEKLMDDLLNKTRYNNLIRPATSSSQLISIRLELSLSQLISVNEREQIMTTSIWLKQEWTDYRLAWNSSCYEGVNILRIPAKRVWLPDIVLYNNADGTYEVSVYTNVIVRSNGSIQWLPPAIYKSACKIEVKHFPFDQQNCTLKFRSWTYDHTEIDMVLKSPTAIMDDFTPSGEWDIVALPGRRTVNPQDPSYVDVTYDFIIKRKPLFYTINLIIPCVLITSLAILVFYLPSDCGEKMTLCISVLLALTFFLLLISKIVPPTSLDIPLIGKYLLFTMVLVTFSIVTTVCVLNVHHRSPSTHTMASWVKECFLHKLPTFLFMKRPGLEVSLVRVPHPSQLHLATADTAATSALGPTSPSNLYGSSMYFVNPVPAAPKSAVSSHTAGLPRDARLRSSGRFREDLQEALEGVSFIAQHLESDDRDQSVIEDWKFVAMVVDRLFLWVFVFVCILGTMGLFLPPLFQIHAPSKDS", "settings": "Xiao et al., 2001; cited from earlier work"}, "Forced swim test (mice)": {"assay": "Forced swim test (mice)", "format": "in vivo, mouse", "settings": "6 min test", "description": "Forced Swim Test (FST; Mice) The FST in mice was conducted as previously described [11]. Briefly, 10 min following i.p. injection of saline, EDDP or EMDP, mice were placed in Plexiglas cylinders filled with water (25° C.) for 6 min while being videotaped. The forced swim score for the entire 6 min test was assessed using the Cleversystems videotracking system (CleverSys) and confirmed with visual scoring by a trained observer. A mouse was judged to be immobile when making only those movements necessary to keep its head above water."}, "Marble burying (mice)": {"assay": "Marble burying (mice)", "format": "in vivo, mouse", "settings": "15 min test, vehicle mean 11 of 20", "description": "Marble Burying (Mice) After a 1 h period of acclimation to the testing room, the mice (n=6-10 per group) were injected i.p. with saline, EDDP, EMDP, or CDP at the doses indicated. Ten minutes later, the mice were placed individually in small cages (26×20×14 cm), in which twenty marbles had been equally distributed on top of mouse bedding (5-cm deep), and a wire lid was placed on top of the cage. Mice were left undisturbed for 15 min, after which time the number of buried marbles (i.e., those covered by bedding three-quarters or more) was counted."}, "[1]": {"assay": "Open field locomotor activity (rats)", "format": "in vivo, rat", "settings": "10 mg/kg s.c., 30 min after injection", "description": "Locomotor Activity (Rats) Locomotor activity was measured 30 minutes after sc injection of test compound. Animals were placed in a Plexiglass enclosure (16″×16″×16″, TruScan Arena, Coulbourn Instruments, Whitehall, Pa.) with 770 lux illumination over the center of the arena. Animals were allowed to explore for 20 min, during which total distance traveled was recorded using ANYmaze software (Stoelting Co., Wood Dale, Ill.), as previously described (Forcelli et al., 2012)."}, "[2]": {"assay": "Elevated plus maze (rats)", "format": "in vivo, rat", "description": "Elevated Plus Maze (Rats) Plus maze testing was performed and scored as previously described (Forcelli and Heinrichs, 2008; Forcelli et al., 2012), in a standard grey rat elevated plus maze (50 cm arms, elevated 40 cm off the ground [Stoelting Co., Wood Dale, Ill.]). Testing was conducted under 20 lux red light, 30 min after drug administration. The number of arm entries and time spent in open and closed arms were recorded using ANYmaze (Stoelting Co, Wood Dale, Ill.)."}, "opiate receptors": {"system": "opiate receptors", "assay": "[3H]-naloxone binding competition in rat forebrain membranes"}, "human α3β4 nAChRs": {"molecular_target": "T1, human α3β4 nAChRs (Homo sapiens, UniProt P30926+P32297)", "T1 construct": "expressed in transfected cells", "T1 sequence (P32297 32-505)": "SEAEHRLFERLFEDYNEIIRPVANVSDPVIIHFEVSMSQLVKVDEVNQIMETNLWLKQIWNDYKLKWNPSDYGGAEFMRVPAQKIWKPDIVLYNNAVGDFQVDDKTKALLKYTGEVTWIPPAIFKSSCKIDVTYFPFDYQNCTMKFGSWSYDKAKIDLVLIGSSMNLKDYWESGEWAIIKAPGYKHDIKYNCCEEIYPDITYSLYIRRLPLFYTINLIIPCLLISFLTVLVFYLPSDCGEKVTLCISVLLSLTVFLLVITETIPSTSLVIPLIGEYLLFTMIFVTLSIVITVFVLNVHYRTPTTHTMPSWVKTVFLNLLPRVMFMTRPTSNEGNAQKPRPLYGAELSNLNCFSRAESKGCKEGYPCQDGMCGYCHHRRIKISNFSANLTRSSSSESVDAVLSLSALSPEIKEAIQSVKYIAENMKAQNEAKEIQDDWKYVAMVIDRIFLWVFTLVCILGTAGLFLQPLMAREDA", "T1 sequence (P30926 22-498)": "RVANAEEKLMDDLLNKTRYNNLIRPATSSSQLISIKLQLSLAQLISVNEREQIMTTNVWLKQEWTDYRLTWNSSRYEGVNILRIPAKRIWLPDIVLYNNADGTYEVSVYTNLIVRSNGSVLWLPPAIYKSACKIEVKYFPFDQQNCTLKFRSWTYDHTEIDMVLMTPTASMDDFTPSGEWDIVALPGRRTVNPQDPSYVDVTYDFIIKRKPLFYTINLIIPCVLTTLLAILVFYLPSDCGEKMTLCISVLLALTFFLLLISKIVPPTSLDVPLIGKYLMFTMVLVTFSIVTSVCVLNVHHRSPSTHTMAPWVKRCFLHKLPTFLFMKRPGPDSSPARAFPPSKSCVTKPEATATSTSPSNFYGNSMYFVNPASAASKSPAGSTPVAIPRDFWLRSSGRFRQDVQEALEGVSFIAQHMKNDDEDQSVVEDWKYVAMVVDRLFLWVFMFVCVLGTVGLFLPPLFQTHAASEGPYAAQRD", "assay": "86Rb+ efflux assay, inhibition of nicotine-stimulated efflux, α3β4 nAChRs", "format": "cell-based", "settings": "86Rb+ efflux stimulated by 100 μM nicotine; HEK cells YXα3β4H1; mean ± standard error", "description": "Stable cell lines and ^86Rb^+ efflux Assay. […] These cell lines were maintained in minimum essential medium (MEM) supplemented with 10% fetal bovine serum, 100 units/mL penicillin G, […] and selective antibiotics at 37° C. with 5% CO2 in a humidified incubator. Tissue culture medium and antibiotics were obtained from Invitrogen Corporation (Carlsbad, Calif.), unless otherwise stated. Fetal bovine serum was obtained from Gemini Bio-Products (Woodland, Calif.).\nIn brief, cells were plated into 24-well plates coated with poly-D-lysine. […] The cells were then incubated in growth medium (0.5 mL/well) containing ^86Rb^+ (2 μCi/mL) for 4 hour at 37° C. The loading mixture was then aspirated, and the cells were washed four times with 1 mL buffer (15 mM HEPES, 140 mM NaCl, 2 mM KCl, 1 mM MgSO4, 1.8 mM CaCl2), 11 mM Glucose, pH 7.4). One mL of buffer with or without compounds to be tested was then added to each well. After incubation for 2 min, the assay buffer was collected for measurements of ^86Rb^+ released from the cells. Cells were then lysed by adding 1 mL of 100 mM NaOH to each well, and the lysate was collected for determination of the amount of ^86Rb^+ that was in the cells at the end of the efflux assay. Radioactivity of assay samples and lysates was measured by liquid scintillation counting. Total loading (cpm) was calculated as the sum of the assay sample and the lysate of each well, and the amount of ^86Rb^+ efflux was expressed as a percentage of ^86Rb^+ loaded. Stimulated ^86Rb^+ efflux was defined as the difference between efflux in the presence and absence of nicotine. […] IC50 values were determined by nonlinear least-squares regression analyses (GraphPad. San Diego, Calif.)."}, "human α4β2 nAChRs": {"molecular_target": "T2, human α4β2 nAChRs (Homo sapiens, UniProt P17787+P43681)", "T2 construct": "expressed in transfected cells", "T2 sequence (P43681 29-627 limits assumed)": "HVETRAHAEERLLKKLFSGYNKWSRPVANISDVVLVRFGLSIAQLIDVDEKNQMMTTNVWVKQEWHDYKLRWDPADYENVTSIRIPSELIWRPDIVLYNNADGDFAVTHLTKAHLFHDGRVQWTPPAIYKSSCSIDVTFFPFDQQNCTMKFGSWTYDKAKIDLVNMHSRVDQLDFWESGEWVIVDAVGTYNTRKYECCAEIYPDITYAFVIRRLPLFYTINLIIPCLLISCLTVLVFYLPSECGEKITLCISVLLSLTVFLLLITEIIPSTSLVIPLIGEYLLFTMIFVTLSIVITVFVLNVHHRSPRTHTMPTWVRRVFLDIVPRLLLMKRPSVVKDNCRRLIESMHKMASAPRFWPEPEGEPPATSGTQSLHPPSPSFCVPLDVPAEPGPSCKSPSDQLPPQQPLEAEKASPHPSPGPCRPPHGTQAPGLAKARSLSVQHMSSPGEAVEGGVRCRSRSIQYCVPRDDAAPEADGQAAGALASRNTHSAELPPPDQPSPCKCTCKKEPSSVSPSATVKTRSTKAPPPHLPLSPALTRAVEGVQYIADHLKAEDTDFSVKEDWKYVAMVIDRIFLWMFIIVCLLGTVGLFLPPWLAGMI", "T2 sequence (P17787 26-502)": "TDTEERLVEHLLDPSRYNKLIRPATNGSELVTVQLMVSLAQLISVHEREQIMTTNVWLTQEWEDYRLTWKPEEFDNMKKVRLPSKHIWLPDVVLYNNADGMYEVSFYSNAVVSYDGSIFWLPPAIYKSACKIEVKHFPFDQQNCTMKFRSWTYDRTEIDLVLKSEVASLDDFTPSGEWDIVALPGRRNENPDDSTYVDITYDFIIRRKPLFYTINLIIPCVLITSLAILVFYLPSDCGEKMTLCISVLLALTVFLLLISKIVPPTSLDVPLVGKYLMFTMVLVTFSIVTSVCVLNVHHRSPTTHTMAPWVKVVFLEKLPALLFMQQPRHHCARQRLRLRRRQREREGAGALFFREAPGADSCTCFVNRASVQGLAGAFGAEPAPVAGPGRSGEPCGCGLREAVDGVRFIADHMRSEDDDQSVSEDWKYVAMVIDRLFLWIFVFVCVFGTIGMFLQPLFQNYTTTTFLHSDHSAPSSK", "assay": "86Rb+ efflux assay, inhibition of nicotine-stimulated efflux, α4β2 nAChRs", "format": "cell-based", "settings": "86Rb+ efflux stimulated by 100 μM nicotine; HEK cells YXα4β2H1; mean ± standard error", "description": "Stable cell lines and ^86Rb^+ efflux Assay. The cell lines expressing human α4β2 (YXα4β2H1) and α3β4 (YXα3β4H1) nAChRs were established recently (Xiao el al., 2012). These cell lines were maintained in minimum essential medium (MEM) supplemented with 10% fetal bovine serum, 100 units/mL penicillin G, […] streptomycin and selective antibiotics at 37° C. with 5% CO2 in a humidified incubator. Tissue culture medium and antibiotics were obtained from Invitrogen Corporation (Carlsbad, Calif.), unless otherwise stated. Fetal bovine serum was obtained from Gemini Bio-Products (Woodland, Calif.).\nFunctional properties of compounds at nAChRs expressed in the transfected cells were measured using ^86Rb^+ efflux assays as described previously (Xiao et al., 1998, 2001). In brief, cells were plated into 24-well plates coated with poly-D-lysine. The plated cells were grown at 37° C. for 18 to 24 hour to reach 85-95% confluence. The cells were then incubated in growth medium (0.5 mL/well) containing ^86Rb^+ (2 μCi/mL) for 4 hour at 37° C. The loading mixture was then aspirated, and the cells were washed four times with 1 mL buffer (15 mM HEPES, 140 mM NaCl, 2 mM KCl, 1 mM MgSO4, 1.8 mM CaCl2), 11 mM Glucose, pH 7.4). One mL of buffer with or without compounds to be tested was then added to each well. After incubation for 2 min, the assay buffer was collected for measurements of ^86Rb^+ released from the cells. Cells were then lysed by adding 1 mL of 100 mM NaOH to each well, and the lysate was collected for determination of the amount of ^86Rb^+ that was in the cells at the end of the efflux assay. Radioactivity of assay samples and lysates was measured by liquid scintillation counting. Total loading (cpm) was calculated as the sum of the assay sample and the lysate of each well, and the amount of ^86Rb^+ efflux was expressed as a percentage of ^86Rb^+ loaded. Stimulated ^86Rb^+ efflux was defined as the difference between efflux in the presence and absence of nicotine. […] IC50 values were determined by nonlinear least-squares regression analyses (GraphPad. San Diego, Calif.)."}, "[3]": {"assay": "Eyelid ptosis assessment (rats)", "format": "in vivo, rat", "settings": "5 mg/kg", "description": "Ptosis was assessed as previously described (Rubin et al., 1957). Each animal was photographed while gently restrained by hand. Photographs were analyzed by a treatment blind observer (P.A.F.) and assigned a score of 0 (no ptosis, eye completely open), 1 (mild, eye partially closed), 2 (moderate, eye half closed), 3 (severe, eye […] closed), or 4 (complete, eye completely closed)."}}, "note": "Values joined by “and” are separate entries in the source; they are usually repeats but may differ in a detail not shown here. Equal entries are not always repeated. Structures can show the parent of a compound that is named as a salt.", "data": [{"compound": "CC=C1N(C)C(C)CC1(c1ccccc1)c1ccccc1", "note": "(racemic) [EDDP, 2-ethylidene-1,5-dimethyl-3,3-diphenylpyrrolidine]", "values": [{"measurement": "immobile time in forced swim test vs vehicle", "setting": "Forced swim test (rats); 10 mg/kg s.c.", "result": "without effect"}, {"measurement": "block of rat α3β4 nAChR channels", "setting": "rat α3β4 nAChR channels", "result": "potently block"}, {"measurement": "duration of immobility in forced swim test vs vehicle", "setting": "Forced swim test (mice); 1 mg/kg i.p.", "result": "did not produce a significant effect"}, {"measurement": "duration of immobility in forced swim test vs vehicle", "setting": "Forced swim test (mice); 5 mg/kg i.p.", "result": "did not produce a significant effect"}, {"measurement": "duration of immobility in forced swim test vs vehicle", "setting": "Forced swim test (mice); 10 mg/kg i.p.", "result": "did not produce a significant effect"}, {"measurement": "number of marbles buried vs vehicle", "setting": "Marble burying (mice); 5 mg/kg i.p.", "result": "buried significantly fewer marbles"}, {"measurement": "number of marbles buried vs vehicle", "setting": "Marble burying (mice); 10 mg/kg i.p.", "result": "did not reach statistical significance"}, {"measurement": "open field locomotor activity", "setting": "[1]", "result": "neither EDDP nor EMDP significantly altered"}, {"measurement": "mean duration in the open arms of the elevated plus maze", "setting": "[2]; 10 mg/kg s.c., 30 min after drug, vehicle 104 s", "result": 80, "unit": "s"}, {"measurement": "percentage of entries made into the open arms of the plus maze", "setting": "[2]; vs vehicle", "result": "the groups did not differ"}, {"measurement": "latency to first entry in the open arms", "setting": "[2]; vs vehicle (data not shown)", "result": "did not differ as a function of treatment group"}, {"measurement": "apparent affinity, fold lower than that of methadone", "setting": "opiate receptors; rat forebrain [3H]-naloxone binding", "result": "~83 fold and 84 fold"}, {"measurement": "fraction of [3H]-naloxone binding sites competed for", "setting": "opiate receptors; rat forebrain membranes", "result": "nearly all of the binding sites"}, {"measurement": "Ki", "setting": "opiate receptors; rat forebrain membranes, 2 nM [3H]-naloxone, single-site model", "result": 0.918, "unit": "µM"}]}, {"compound": "CC=C1N(C)C(C)CC1(c1ccccc1)c1ccccc1", "note": "(single isomer, unassigned; (+)) [(+)-EDDP, 2-ethylidene-1,5,dimethyl-3,3-diphenylpyrrolidine perchlorate]", "values": [{"measurement": "IC50", "setting": "human α3β4 nAChRs", "result": "0.9 ± 0.09", "unit": "µM"}, {"measurement": "IC50", "setting": "human α4β2 nAChRs", "result": "1.8 ± 0.6", "unit": "µM"}]}, {"compound": "CCC1=NC(C)CC1(c1ccccc1)c1ccccc1", "note": "(single isomer, unassigned; (+)) [(+)-EMDP, 2-ethyl-5-methyl-3,3-diphenyl-1-pyrroline hydrochloride]", "values": [{"measurement": "IC50", "setting": "human α3β4 nAChRs", "result": "7.4 ± 2.1", "unit": "µM"}, {"measurement": "IC50", "setting": "human α4β2 nAChRs", "result": "24 ± 5", "unit": "µM"}]}, {"compound": "CC=C1N(C)C(C)CC1(c1ccccc1)c1ccccc1", "note": "(single isomer, unassigned; (-)) [(−)-EDDP, 2-ethylidene-1,5,dimethyl-3,3-diphenylpyrrolidine perchlorate]", "values": [{"measurement": "IC50", "setting": "human α3β4 nAChRs", "result": "0.7 ± 0.06", "unit": "µM"}, {"measurement": "IC50", "setting": "human α4β2 nAChRs", "result": "1.4 ± 0.2", "unit": "µM"}]}, {"compound": "CCC1=NC(C)CC1(c1ccccc1)c1ccccc1", "note": "(single isomer, unassigned; (-)) [(−)-EMDP, 2-ethyl-5-methyl-3,3-diphenyl-1-pyrroline hydrochloride]", "values": [{"measurement": "IC50", "setting": "human α3β4 nAChRs", "result": "7 ± 1.2", "unit": "µM"}, {"measurement": "IC50", "setting": "human α4β2 nAChRs", "result": "19 ± 4", "unit": "µM"}]}, {"compound": "CNC1=Nc2ccc(Cl)cc2C(c2ccccc2)=[N+]([O-])C1", "note": "[CDP, chlordiazepoxide HCl, reference compound]", "values": [{"measurement": "number of marbles buried vs vehicle", "setting": "Marble burying (mice); 10 mg/kg i.p.", "result": "buried significantly fewer marbles"}]}, {"compound": "CNC1(C)C2CCC(C2)C1(C)C", "note": "(centres unmarked) [Mecamylamine, Mecamylamine HCl]", "values": [{"measurement": "immobile time in forced swim test vs vehicle", "setting": "Forced swim test (rats); 5 mg/kg s.c.", "result": "reduced immobile time"}, {"measurement": "eyelid ptosis quantified over 3 h", "setting": "[3]", "result": "produced ptosis in a time-dependent manner"}, {"measurement": "onset of ptosis after injection", "setting": "[3]", "result": "≤ 15", "unit": "min"}, {"measurement": "ptosis observed during forced swim tests", "setting": "[3]", "result": "obvious ptosis"}, {"measurement": "IC50", "setting": "human α4β2 nAChRs", "result": "1 ± 0.3", "unit": "µM"}]}, {"compound": "CN[C@H]1CC[C@@H](c2ccc(Cl)c(Cl)c2)c2ccccc21", "note": "[sertraline, sertraline HCl, reference compound]", "values": [{"measurement": "immobile time in forced swim test vs vehicle", "setting": "Forced swim test (rats); 20 mg/kg s.c.", "result": "significantly reduced immobile time"}]}]}
